In US10059701B2 (Merck Patent GmbH, priority 2015, dated 2018) one finds IC50 data, which are given here for 20 compounds.

The term IC50 denotes the midpoint of a concentration-inhibition curve.

One assay deals with T1, IRAK4 (Homo sapiens, UniProt Q9NWZ3).
T1 construct: His-TEV-IRAK4 (1-460); His (N); TEV cleavage site (N)
T1 sequence (Q9NWZ3 1-460): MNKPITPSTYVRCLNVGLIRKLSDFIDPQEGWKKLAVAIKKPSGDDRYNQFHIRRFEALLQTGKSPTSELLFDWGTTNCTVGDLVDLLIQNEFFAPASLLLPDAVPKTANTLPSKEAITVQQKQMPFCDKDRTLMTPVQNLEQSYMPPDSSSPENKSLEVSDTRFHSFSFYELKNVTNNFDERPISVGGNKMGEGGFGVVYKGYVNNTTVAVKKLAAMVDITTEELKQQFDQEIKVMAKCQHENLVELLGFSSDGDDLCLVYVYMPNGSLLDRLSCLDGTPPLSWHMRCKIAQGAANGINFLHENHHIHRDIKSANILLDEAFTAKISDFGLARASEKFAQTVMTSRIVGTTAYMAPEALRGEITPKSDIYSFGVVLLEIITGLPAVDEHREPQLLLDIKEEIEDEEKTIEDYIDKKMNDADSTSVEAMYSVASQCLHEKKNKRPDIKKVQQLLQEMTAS
The assay can be described thus: IRAK4 enzymatic assay (ADP-Glo luminescence). The conditions noted are these: purified human recombinant His-TEV-IRAK4 (1-460), ATP 2 μM. Format: biochemical. The procedure, abridged: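 Recombinant His-TEV-IRAK4 (1-460) at 0.3 μg/ml preincubated 15 min at RT with compounds (10 μM to 0.5 nM) in Hepes pH 7.0 buffer with MgCl2/MnCl2. Reaction started with 2 μM ATP and 300 nM STK1-biotin peptide, run 2 h at RT. ADP formed read by ADP-Glo luminescence.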

Another assay addresses T2, IRAK1 (Homo sapiens, UniProt P51617).
T2 construct: His-TEV-IRAK1 (194-712); His (N); TEV cleavage site (N)
The assay is described as follows: IRAK1 enzymatic assay (ADP-Glo luminescence). The conditions noted are these: purified human recombinant His-TEV-IRAK1 (194-712). The class given is biochemical. An outline of the steps:
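Recombinant human His-TEV-IRAK1 (194-712), 0.3 μg/ml, preincubated 15 min at RT with compounds (10 μM to 0.5 nM) in 50 mM Hepes pH 7.0, 10 mM MgCl2, 2 mM DTT, 0.1% BSA. ATP-started reaction run 2 hours at RT; ADP formed from ATP hydrolysis/autophosphorylation read by ADP-Glo luminescence.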
In general terms: ADP-Glo first removes unused ATP, then detects ADP through luciferase.

A value given as a limit tells only on which side of the number the result lay.

T2 sequence (P51617 194-712): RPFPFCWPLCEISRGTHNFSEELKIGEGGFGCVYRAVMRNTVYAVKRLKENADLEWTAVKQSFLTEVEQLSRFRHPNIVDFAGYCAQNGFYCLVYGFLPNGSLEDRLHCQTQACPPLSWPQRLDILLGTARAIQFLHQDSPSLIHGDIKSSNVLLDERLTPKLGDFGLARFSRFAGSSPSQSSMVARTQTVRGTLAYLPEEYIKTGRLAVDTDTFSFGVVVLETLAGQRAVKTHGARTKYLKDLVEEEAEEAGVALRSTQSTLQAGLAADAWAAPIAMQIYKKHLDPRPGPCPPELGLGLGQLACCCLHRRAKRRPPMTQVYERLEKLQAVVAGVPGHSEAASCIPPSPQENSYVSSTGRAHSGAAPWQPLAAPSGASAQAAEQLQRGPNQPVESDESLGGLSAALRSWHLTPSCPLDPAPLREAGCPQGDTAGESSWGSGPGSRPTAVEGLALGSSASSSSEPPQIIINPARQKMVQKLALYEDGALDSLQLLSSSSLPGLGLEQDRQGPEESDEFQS

Turning to `CS(=O)(=O)c1cccc(C(=O)/N=c2\[nH]c3cc(N4CCOCC4=O)ccc3n2[C@H]2CC[C@@H](O)CC2)c1` [Compound 54, cis-(E)-N-(1-(4-hydroxycyclohexyl)-5-(3-oxomorpholino)-1H-benzo[d]imidazol-2(3H)-ylidene)-3-(methylsulfonyl)benzamide], the IC50 at IRAK4 and on IRAK1 was no more than 100 nM in each case.
As to `N#Cc1cccc(C(=O)/N=c2\[nH]c3cc(N4CCOCC4=O)ccc3n2[C@H]2CC[C@@H](O)CC2)c1` [Compound 55, cis-(E)-3-cyano-N-(1-(4-hydroxycyclohexyl)-5-(3-oxomorpholino)-1H-benzo[d]imidazol-2(3H)-ylidene)benzamide], the IC50 at IRAK4 and at IRAK1 was no more than 100 nM throughout.
Regarding `O=C(/N=c1\[nH]c2cc(N3CCOCC3=O)ccc2n1[C@H]1CC[C@@H](O)CC1)c1cccc(C(F)F)c1` [Compound 56, cis-(E)-3-(difluoromethyl)-N-(1-(4-hydroxycyclohexyl)-5-(3-oxomorpholino)-1H-benzo[d]imidazol-2(3H)-ylidene)benzamide], the IC50 on IRAK4 and on IRAK1 was no more than 100 nM throughout.
Regarding `O=C(/N=c1\[nH]c2cc(N3CCOCC3=O)ccc2n1[C@H]1CC[C@@H](O)CC1)c1cccc(C(F)(F)F)c1` [Compound 57, cis-(E)-N-(1-(4-hydroxycyclohexyl)-5-(3-oxomorpholino)-1H-benzo[d]imidazol-2(3H)-ylidene)-3-(trifluoromethyl)benzamide], the IC50 on IRAK4 and on IRAK1 was no more than 100 nM throughout.
As to `N#Cc1cccc(C(=O)/N=c2\[nH]c3cc(N4CCCOC4=O)ccc3n2CCCO)c1` [Compound 58, (E)-3-cyano-N-(1-(3-hydroxypropyl)-5-(2-oxo-1,3-oxazinan-3-yl)-1H-benzo[d]imidazol-2(3H)-ylidene)benzamide], the half-inhibitory concentration (IC50) at IRAK4 and at IRAK1 was no more than 100 nM each time.
On to `Cn1nc(C(=O)/N=c2\[nH]c3cc(N4CCOCC4=O)ccc3n2CCCO)c2ccccc21` [Compound 60, (E)-N-(1-(3-hydroxypropyl)-5-(3-oxomorpholino)-1H-benzo[d]imidazol-2(3H)-ylidene)-1-methyl-1H-indazole-3-carboxamide], for which the IC50 on IRAK4 and at IRAK1 was greater than 1000 nM each time.
Take `CSCCn1/c(=N/C(=O)c2cccc(C(F)F)c2)[nH]c2cc(N3CCOCC3=O)ccc21` [Compound 63, (E)-3-(difluoromethyl)-N-(1-(2-(methylthio)ethyl)-5-(3-oxomorpholino)-1H-benzo[d]imidazol-2(3H)-ylidene)benzamide]: the results for the IC50 at IRAK4 and on IRAK1 were no more than 100 nM and 100 to 1000 nM, respectively.
As to `COc1cc2c(cc1N1CCOCC1=O)[nH]/c(=N\C(=O)c1cccc(CO)c1)n2CCCO` [Compound 64, (E)-3-(hydroxymethyl)-N-(1-(3-hydroxypropyl)-6-methoxy-5-(3-oxomorpholino)-1H-benzo[d]imidazol-2(3H)-ylidene)benzamide], the IC50 at IRAK4 is no more than 100 nM; on IRAK1, 100 to 1000 nM.
On to `C[C@H](CCO)n1/c(=N/C(=O)c2cccc(OC(F)F)c2)[nH]c2cc(N3CCOCC3=O)ccc21` [Compound 65, (R,E)-3-(difluoromethoxy)-N-(1-(4-hydroxybutan-2-yl)-5-(3-oxomorpholino)-1H-benzo[d]imidazol-2(3H)-ylidene)benzamide], for which the IC50 on IRAK4 and on IRAK1 was no more than 100 nM throughout.
For `O=C(/N=c1\[nH]c2cc(N3CCOCC3=O)ccc2n1CC1(CO)CC1)c1cccc(OC(F)F)c1` [Compound 66, (E)-3-(difluoromethoxy)-N-(1-((1-(hydroxymethyl)cyclopropyl)methyl)-5-(3-oxomorpholino)-1H-benzo[d]imidazol-2(3H)-ylidene)benzamide], the IC50 at IRAK4 was no more than 100 nM; at IRAK1 it was 100 to 1000 nM.
For the compound `Cc1cc2c(cc1N1CCOCC1=O)[nH]/c(=N\C(=O)c1cc(F)cc(C(F)(F)F)c1)n2CCCO` [Compound 67, (E)-3-fluoro-N-(1-(3-hydroxypropyl)-6-methyl-5-(3-oxomorpholino)-1H-benzo[d]imidazol-2(3H)-ylidene)-5-(trifluoromethyl)benzamide], the IC50 on IRAK4 and at IRAK1 was no more than 100 nM in each case.
On to `Cc1cc2c(cc1N1CCOCC1=O)[nH]/c(=N\C(=O)c1cccc(C#N)c1)n2CCCO` [Compound 68, (E)-3-cyano-N-(1-(3-hydroxypropyl)-6-methyl-5-(3-oxomorpholino)-1H-benzo[d]imidazol-2(3H)-ylidene)benzamide], for which the half-inhibitory concentration (IC50) at IRAK4 was no more than 100 nM; on IRAK1, 100 to 1000 nM.
Regarding `Cc1cc2c(cc1N1CCOCC1=O)[nH]/c(=N\C(=O)c1cccc(C(F)F)c1)n2CCCO` [Compound 69, (E)-3-(difluoromethyl)-N-(1-(3-hydroxypropyl)-6-methyl-5-(3-oxomorpholino)-1H-benzo[d]imidazol-2(3H)-ylidene)benzamide], the IC50 on IRAK4 and at IRAK1 was no more than 100 nM in each case.
On to `Cc1cc2c(cc1N1CCOCC1=O)[nH]/c(=N\C(=O)c1cccc(C(F)(F)F)c1)n2CCCO` [Compound 70, (E)-N-(1-(3-hydroxypropyl)-6-methyl-5-(3-oxomorpholino)-1H-benzo[d]imidazol-2(3H)-ylidene)-3-(trifluoromethyl)benzamide], for which the figures for the 50% inhibitory concentration (IC50) on IRAK4 and on IRAK1 were no more than 100 nM and 100 to 1000 nM, respectively.
Taken in the same sequence, the figures for `O=C(/N=c1\[nH]c2cc(N3CCOCC3=O)ccc2n1CCCO)c1cnccn1` [Compound 72, (E)-N-(1-(3-hydroxypropyl)-5-(3-oxomorpholino)-1H-benzo[d]imidazol-2(3H)-ylidene)pyrazine-2-carboxamide] were greater than 1000 nM and greater than 1000 nM.
For `COc1cc2c(cc1N1CCOCC1=O)[nH]/c(=N\C(=O)c1cc(F)cc(C(F)(F)F)c1)n2CCCO` [Compound 73, (E)-3-fluoro-N-(1-(3-hydroxypropyl)-6-methoxy-5-(3-oxomorpholino)-1H-benzo[d]imidazol-2(3H)-ylidene)-5-(trifluoromethyl)benzamide] the same measures were no more than 100 nM and no more than 100 nM.
Take `COc1cc2c(cc1N1CCOCC1=O)[nH]/c(=N\C(=O)c1cccc(C#N)c1)n2CCCO` [Compound 74, (E)-3-cyano-N-(1-(3-hydroxypropyl)-6-methoxy-5-(3-oxomorpholino)-1H-benzo[d]imidazol-2(3H)-ylidene)benzamide]: the IC50 on IRAK4 and on IRAK1 was no more than 100 nM in each case.
On to `COc1cc2c(cc1N1CCOCC1=O)[nH]/c(=N\C(=O)c1cccc(C(F)F)c1)n2CCCO` [Compound 75, (E)-3-(difluoromethyl)-N-(1-(3-hydroxypropyl)-6-methoxy-5-(3-oxomorpholino)-1H-benzo[d]imidazol-2(3H)-ylidene)benzamide], for which the IC50 at IRAK4 and at IRAK1 was no more than 100 nM in each case.
For `COc1cc2c(cc1N1CCOCC1=O)[nH]/c(=N\C(=O)c1cccc(C(F)(F)F)c1)n2CCCO` [Compound 76, (E)-N-(1-(3-hydroxypropyl)-6-methoxy-5-(3-oxomorpholino)-1H-benzo[d]imidazol-2(3H)-ylidene)-3-(trifluoromethyl)benzamide], the 50% inhibitory concentration (IC50) at IRAK4 and on IRAK1 was no more than 100 nM in each case.
Turning to `O=C(/N=c1\[nH]c2cc(N3CCOCC3=O)ccc2n1CCCO)c1cccnc1` [Compound 77, (E)-N-(1-(3-hydroxypropyl)-5-(3-oxomorpholino)-1H-benzo[d]imidazol-2(3H)-ylidene)nicotinamide], the IC50 on IRAK4 was no more than 100 nM; at IRAK1, 100 to 1000 nM.
